Reference: patent publication US6750348B1, “Chemokine receptor binding heterocyclic compounds” (AnorMED, Inc., priority 1999, dated 2004)

Assays:
Assay type in all cases: cell-based
HIV-1 BaL (CCR5 using) = assay: Inhibition of HIV-1 (BaL) replication in PHA-stimulated PBMC's (MTT); conditions: Human immunodeficiency virus 1, BAL, MTT assay
Experimental: Compounds were tested for their ability to inhibit HIV-1 replication in MT-4 cells or PBMC's (peripheral blood mononucleocytes) using published procedures (for example, see: Labrosse et al. J. Virol. 1998, 6381-6388; Simmons et al. J. Virol. 1998, 8453-8457; Donzella et al. Nature Medicine 1998, 72-77; Schols et al. J. Exp. Med. 1997, 1383-1388; De Clercq et al. Antiviral Res. 1997, 147-156; and Bridger et al. U.S. patent application Ser. No. 09/111,895). In addition to the above references, experimental methods for performing anti-viral assays can also be found in: Bridger et al. J. Med. Chem. 1995, 38, 366-378; Bridger et al. J. Med. Chem. 1996, 39, 109-119; Bridger et al. U.S. Pat. No. 5,698,546; Bridger et al. U.S. Pat. No. 5,583,131; Bridger et al. U.S. Pat. No. 5,817,807; De Clercq et al. Antimicrob. Agents and Chemother. 1994, 38, 668-674.
The HIV-1 strain BaL is M-tropic (macrophage tropic) strain that exclusively uses CCR5 as a co-receptor for entry into cells. PBMC's (from healthy donors) express all chemokine receptors including CXCR4 and CCR5.

HIV-1 NL4.3 or IIIB = assay: Inhibition of HIV-1 (NL4.3 or IIIB) replication in MT-4 cells (MTT); conditions: Human immunodeficiency virus 1, IIIB, MT4, read-out: EC50, inhibition of HIV-1 NL4.3 or IIIB replication
Summary of the method: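 CXCR4-tropic virus infected MT-4 cells at MOI 0.01 (100× CCID50) across a range of compound concentrations, with cytotoxicity run in parallel. Viable cells counted by MTT after 5 days. EC50 is the concentration protecting 50% of infected cells from viral cytopathicity.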

[1] = tested on: SDF-1α induced Ca flux in SUP-T1 cells; assay: Inhibition of SDF-1α induced Ca flux in SUP-T1 cells (FLIPR); conditions: Homo sapiens, at 20 μg/mL, read-out: inhibited SDF-1α induced Ca flux
Experimental: (§1) Loading dye: Fluo-3, AM (Molecular Probes F-1241) is dissolved in anhydrous DMSO and stored frozen in aliquots. To increase the solubility of the dye in the loading medium, 10% (w/v) pluronic acid (Molecular Probes F-127) is added to the Fluo-3 stock solution immediately before use.
(§2) HBSS+20 mM Hepes buffer+0.2% BSA, pH 7.4. HBSS 10× [(w/o phenol red and sodium bicarbonate (Gibco 14 065-049)]; Hepes buffer 1M (Gibco 15 630-056), BSA (Sigma A3675). The flux buffer is vacuum-filtered and stored refrigerated for a maximum of 5 days. Before use in the experiment, the buffer is warmed at 37° C. in a waterbath.
(§3) The test compounds were diluted in flux buffer and added to 4 wells of a black microplate (4 parallel measurements per compound).
(§4) The chemokines are diluted in flux buffer to concentrations that are 4-fold higher than the desired concentrations required for stimulation of the cells (i.e. 2.5 nM for SDF-1α and 0.6 nM for RANTES). The chemokines were added to untreated 96-well Sero well compound plates (International Medical, Sterilin code 611F96). In the negative control well's (baseline monitoring), flux buffer is added instead of chemokine. As a positive control to check for dye loading efficiency, 20 μM digitonin (final concentration) was also included. The agonist plate was incubated in the FLIPR (37° C.) for 15-30 min.
SUP-T1 cells were centrifuged at room temperature (RT) and re-suspended in loading medium (RPMI-1640 containing 2% FBS and 4 μM Fluo-3, AM). The cells were incubate at room temperature for 45 min. then washed twice in flux buffer then incubated in flux buffer at room temperature for 10 min. The cells were centrifuged and re-suspended in flux buffer at a density of 3×10^6 cells per mL. […] The microplate is then gently centrifuged at room temperature. Homogeneous spreading of the cells on the bottom of the microplate wells was then confirmed with a microscope and the microplate was incubated in the FLIPR (37° C.) for 10 min. prior to testing.
(§5) The FLIPR settings (camera exposure time and laser power) are adjusted to obtain initial fluorescence values between 8,000 and 10,000 units. After monitoring a 20 second-baseline, the agonist (chemokine) (50 μL) is added by automatic pipettor with black pipette tips. Fluorescence is measured simultaneously in all wells of the microplate every 2 seconds (first 2 min) and thereafter every 6 seconds (additional 2 min). The average ca-flux measured in each set of 4 identical wells (one test compound) was calculated by the FLIPR software.
The compounds of the current invention were tested for inhibition of SDF-1α induced Ca flux in SUP-T1 cells using the method described above.

[2] = tested on: RANTES induced Ca flux in U87.CCR5 cells; assay: Inhibition of RANTES induced Ca flux in U87.CCR5 cells (FLIPR); conditions: U-87-CCR5, at 20 μg/mL, read-out: inhibited RANTES induced Ca flux
Experimental: as §1, §2, §3, §4, §5
U87.CCR5 cells were seeded into the black microplates (Costar 3603) on the day before the experiment. The culture medium was removed from the cells and 100 μL of loading medium (DMEM+10% FBS+4 μM Fluo-3, AM) was added to each well and the plate was incubate at 37° C. for 45 min. The loading medium was then removed an the cells were washed twice with flux buffer using the CELL WASH microplate washer (Labsystems) followed by incubation in flux buffer for 10 min. at room temperature (the washing procedure was repeated twice). Finally, the wash buffer was removed from the microplate wells and 150 μL of the test compound, diluted in flux buffer to the desired concentration. The microplate was then incubated in the FLIPR drawer for 10 min. prior to testing. Measurements were performed as described above.
The compounds of the current invention were tested for inhibition of RANTES induced Ca flux in U87.CCR5 cells.

Compound	EC50 (HIV-1 BaL (CCR5 using))	EC50 (HIV-1 NL4.3 or IIIB)	inhibition at 20 µg/mL [1]	inhibition at 20 µg/mL [2]
COc1ccc(CCN(Cc2ccc(CNC3CCCc4cccnc43)cc2)Cc2ccccn2)cc1 (stereo not drawn) [Example 91, N-(2-pyridinylmethyl)-N-[2-(4-methoxyphenyl)ethyl]-N′-(5,6,7,8-tetrahydro-8-quinolinyl)-1,4-benzenedimethanamine]	< 20 µg/mL	< 20 µg/mL	–	–
c1ccc(CNCc2ccc(CN(C3CCNC3)C3CCCc4cccnc43)cc2)nc1 (stereo not drawn) [Example 32, N-(2-pyridinylmethyl)-N′-3-pyrrolidinyl-N′-(5,6,7,8-tetrahydro-8-quinolinyl)-1,4-benzenedimethanamine]	< 20 µg/mL	< 20 µg/mL	–	–
NCCCC[C@H](N)C(=O)N(Cc1ccc(CNCc2ccccn2)cc1)C1CCCc2cccnc21 (stereo partly drawn) [Example 77, N-[[4-[[(2-pyridinylmethyl)amino]methyl]phenyl]methyl]-N-(5,6,7,8-tetrahydro-8-quinolinyl)-(L)-lysinamide]	–	–	> 20%	> 20%
O=C([C@@H]1CCCN1)N(Cc1ccc(CNCc2ccccn2)cc1)C1CCCc2cccnc21 (stereo partly drawn) [Example 76, N-[[4-[[(2-pyridinylmethyl)amino]methyl]phenyl]methyl]-N-(5,6,7,8-tetrahydro-8-quinolinyl)-(L)-prolinamide]	–	–	> 20%	> 20%
C[C@H](N)C(=O)N(Cc1ccc(CNCc2ccccn2)cc1)C1CCCc2cccnc21 (stereo partly drawn) [Example 73, N-[[4-[[(2-pyridinylmethyl)amino]methyl]phenyl]methyl]-N-(5,6,7,8-tetrahydro-8-quinolinyl)-(L)-alaninamide]	–	–	> 20%	> 20%
c1ccc(CNCc2ccc(CN(CCCNCc3ccc4ccccc4c3)C3CCCc4cccnc43)cc2)nc1 (stereo not drawn) [Example 22, N-(2-pyridinylmethyl)-N′-[3-((2-naphthalenylmethyl)amino)propyl]-N′-(5,6,7,8-tetrahydro-8-quinolinyl)-1,4-benzenedimethanamine]	–	–	> 20%	> 20%
N[C@@H]1CCCC[C@H]1N(Cc1ccc(CNCc2ccccn2)cc1)C1CCCc2cccnc21 (relative stereo) [Example 68, N-(2-pyridinylmethyl)-N′-(trans-2-aminocyclohexyl)-N′-(5,6,7,8-tetrahydro-8-quinolinyl)-1,4-benzenedimethanamine]	–	< 20 µg/mL	–	> 20%
c1ccc(CNCc2ccc(CN(C3CCNCC3)C3CCCc4cccnc43)cc2)nc1 (stereo not drawn) [Example 33, N-(2-pyridinylmethyl)-N′-4-piperidinyl-N′-(5,6,7,8-tetrahydro-8-quinolinyl)-1,4-benzenedimethanamine]	< 20 µg/mL	< 20 µg/mL	–	–

Further lines, with some results ahead:

EC50 (HIV-1 BaL (CCR5 using))	EC50 (HIV-1 NL4.3 or IIIB)	Compound	inhibition at 20 µg/mL [1]	inhibition at 20 µg/mL [2]
–	< 20 µg/mL	c1ccc(CNCc2ccc(CN(CCNCc3ccc4ccccc4c3)C3CCCc4cccnc43)cc2)nc1 (stereo not drawn) [Example 47, N-(2-pyridinylmethyl)-N′-[2-[(2-naphthalenylmethyl)amino]ethyl]-N′-(5,6,7,8-tetrahydro-8-quinolinyl)-1,4-benzenedimethanamine]	> 20%	> 20%
< 20 µg/mL	< 20 µg/mL	CC1c2ccccc2CCC1NCc1ccc(CNCc2ccccn2)cc1 (stereo not drawn) [Example 37, N-(2-pyridinylmethyl)-N′-(1-methyl-1,2,3,4-tetrahydro-2-naphthalenyl)-1,4-benzenedimethanamine]	> 20%	–
< 20 µg/mL	< 20 µg/mL	Oc1cccc2c1CC(N(Cc1ccc(CNCc3ccccn3)cc1)Cc1ncc[nH]1)CC2 (stereo not drawn) [Example 42, N-(2-pyridinylmethyl)-N′-(1H-imidazol-2-ylmethyl)-N′-(8-hydroxy-1,2,3,4-tetrahydro-2-naphthalenyl)-1,4-benzenedimethanamine]	–	–
–	< 20 µg/mL	c1ccc(CNCc2ccc(CN(CCNCc3ccco3)C3CCCc4cccnc43)cc2)nc1 (stereo not drawn) [Example 50, N-(2-pyridinylmethyl)-N′-[2-[(2-furanylmethyl)amino]ethyl]-N′-(5,6,7,8-tetrahydro-8-quinolinyl)-1,4-benzenedimethanamine]	> 20%	> 20%
–	< 20 µg/mL	c1ccc(CNCCN(Cc2ccc(CNCc3ccccn3)cc2)C2CCCc3cccnc32)nc1 (stereo not drawn) [Example 49, N-(2-pyridinylmethyl)-N′-[2-[(2-pyridinylmethyl)amino]ethyl]-N′-(5,6,7,8-tetrahydro-8-quinolinyl)-1,4-benzenedimethanamine]	> 20%	> 20%
< 20 µg/mL	< 20 µg/mL	c1ccc(CNCc2ccc(CN(Cc3ncc[nH]3)C3CCCc4ncccc43)cc2)nc1 (stereo not drawn) [Example 14, N-(2-pyridinylmethyl)-N′-(1H-imidazol-2-ylmethyl)-N′-(5,6,7,8-tetrahydro-5-quinolinyl)-1,4-benzenedimethanamine]	–	–
< 20 µg/mL	< 20 µg/mL	COc1ccc2c(c1)CCC(NCc1ccc(CNCc3ccccn3)cc1)C2 (stereo not drawn) [Example 36, N-(2-pyridinylmethyl)-N′-(6-methoxy-1,2,3,4-tetrahydro-2-naphthalenyl)-1,4-benzenedimethanamine]	–	–
–	< 20 µg/mL	c1ccc(CNCc2ccc(CN(c3nc4ccccc4o3)C3CCCc4cccnc43)cc2)nc1 (stereo not drawn) [Example 67, N-(2-pyridinylmethyl)-N′-(2-benzoxazolyl)-N′-(5,6,7,8-tetrahydro-8-quinolinyl)-1,4-benzenedimethanamine]	–	> 20%
–	< 20 µg/mL	c1ccc(CNCc2ccc(CNc3cccc4cccnc34)cc2)nc1 [Example 6, N-(2-pyridinylmethyl)-N′-(8-quinolinyl)-1,4-benzenedimethanamine]	–	> 20%
< 20 µg/mL	< 20 µg/mL	c1ccc(NCCN(Cc2ccc(CNCc3ccccn3)cc2)C2CCCc3cccnc32)cc1 (stereo not drawn) [Example 34, N-(2-pyridinylmethyl)-N′-[2-[(phenyl)amino]ethyl]-N′-(5,6,7,8-tetrahydro-8-quinolinyl)-1,4-benzenedimethanamine]	–	–
< 20 µg/mL	< 20 µg/mL	c1ccc(CNCc2ccc(CNC3CCCc4ncccc43)cc2)nc1 (stereo not drawn) [Example 13, N-(2-pyridinylmethyl)-N′-(5,6,7,8-tetrahydro-5-quinolinyl)-1,4-benzenedimethanamine]	–	–
